Results taken from PubChem BioAssay (NCI).
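Where inhibition never reached the appropriate level, the endpoint shown equals the highest concentration tested. Otherwise, values were interpolated linearly from a five-concentration, 48-hour dose response in 96-well plates. TGI marks complete inhibition of growth.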

Key:
Assay in all cases: DTP human tumour cell line panel, 48 h
DU-145 prostate = test system: DU-145 prostate
UACC-257 melanoma = test system: UACC-257 melanoma
SK-OV-3 ovarian = test system: SK-OV-3 ovarian
HS 578T breast = test system: HS 578T breast
SN12C renal = test system: SN12C renal
IGROV1 ovarian = test system: IGROV1 ovarian
UO-31 renal = test system: UO-31 renal
NCI-H23 lung = test system: NCI-H23 lung
CAKI-1 renal = test system: CAKI-1 renal
MALME-3M melanoma = test system: MALME-3M melanoma
HT29 colon = test system: HT29 colon
SK-MEL-28 melanoma = test system: SK-MEL-28 melanoma
COLO 205 colon = test system: COLO 205 colon
RXF 393 renal = test system: RXF 393 renal
HCT-116 colon = test system: HCT-116 colon
OVCAR-3 ovarian = test system: OVCAR-3 ovarian
OVCAR-4 ovarian = test system: OVCAR-4 ovarian
RPMI-8226 leukemia = test system: RPMI-8226 leukemia
HOP-62 NSCLC = test system: HOP-62 NSCLC
SR leukemia = test system: SR leukemia

Row | SMILES | TGI (DU-145 prostate) [µM] | TGI (UACC-257 melanoma) [µM] | TGI (SK-OV-3 ovarian) [µM] | TGI (HS 578T breast) [µM] | TGI (SN12C renal) [µM] | TGI (IGROV1 ovarian) [µM] | TGI (UO-31 renal) [µM] | TGI (NCI-H23 lung) [µM] | TGI (CAKI-1 renal) [µM] | TGI (MALME-3M melanoma) [µM] | TGI (HT29 colon) [µM] | TGI (SK-MEL-28 melanoma) [µM] | TGI (COLO 205 colon) [µM] | TGI (RXF 393 renal) [µM] | TGI (HCT-116 colon) [µM] | TGI (OVCAR-3 ovarian) [µM] | TGI (OVCAR-4 ovarian) [µM] | TGI (RPMI-8226 leukemia) [µM] | TGI (HOP-62 NSCLC) [µM] | TGI (SR leukemia) [µM]
1 | Cn1c(COC(=O)NC2CCCCC2)c(COC(=O)NC2CCCCC2)c2ccc3cc(Cl)c(Cl)cc3c21 | 84.7 | 29 | > 100 | 23.6 | 23.9 | 39.1 | 66.7 | 40.5 | 10.4 | 25.9 | 69.3 | 50.2 | 24.6 | 21.4 | 23.1 | 29.9 | – | – | – | –
2 | O=C1CCC[C@H]2O[C@@H](COCc3ccccc3)C[C@@H]12 | > 100 | > 100 | > 100 | > 100 | > 100 | – | > 100 | > 100 | > 100 | – | > 100 | > 100 | > 100 | – | > 100 | > 100 | > 100 | > 100 | > 100 | > 100
3 | Cc1c2cnccc2nc2[nH]c3ccncc3c12 | > 100 | 94.9 | > 100 | > 100 | > 100 | 20.4 | 28.8 | 6.9 | 24.9 | 14.1 | > 100 | > 100 | > 100 | – | – | 42.4 | > 100 | 19.5 | 18.4 | 11.5
4 | O=C(CC(C(=O)c1ccsc1)c1ccccc1)c1cccs1 (stereo not drawn) | > 100 | > 100 | > 100 | > 100 | > 100 | > 100 | 95.7 | 77.3 | > 100 | – | > 100 | > 100 | > 100 | > 100 | > 100 | > 100 | > 100 | > 100 | > 100 | > 100
5 | CCOC(=O)C(NC(=O)NC(C(=O)OCC)C(=O)OCC)C(=O)OCC | > 100 | – | > 100 | > 100 | > 100 | > 100 | > 100 | > 100 | > 100 | > 100 | > 100 | > 100 | – | > 100 | > 100 | > 100 | – | > 100 | > 100 | > 100
6 | COc1ccc(NCC(=O)Nn2c(C)nc3ccc(S(=O)(=O)Nc4ccc(OC)cc4)cc3c2=O)cc1 | > 100 | > 100 | > 100 | > 100 | > 100 | > 100 | > 100 | > 100 | > 100 | > 100 | > 100 | > 100 | > 100 | – | > 100 | > 100 | > 100 | > 100 | > 100 | > 100
7 | COc1cc2c(c(OC)c1OC)C(=O)[C@H]1OC(=O)N[C@@H]21 | > 100 | > 100 | > 100 | > 100 | > 100 | – | > 100 | > 100 | > 100 | – | > 100 | > 100 | > 100 | > 100 | > 100 | > 100 | > 100 | > 100 | > 100 | > 100
8 | CCN1C(=O)C(=Cc2ccc(-c3ccccc3)cc2)C(=O)N(CC)C1=S | > 100 | > 100 | > 100 | > 100 | > 100 | > 100 | > 100 | > 100 | > 100 | > 100 | > 100 | > 100 | > 100 | > 100 | > 100 | > 100 | > 100 | > 100 | > 100 | –
9 | CCOC(=O)COc1ccc(/C=C/C(=O)c2ccc(OC)cc2)cc1 | 76.8 | 57.3 | – | > 100 | 39.6 | > 100 | 45.4 | 79.8 | – | 92.7 | 64.9 | 58.4 | > 100 | 46 | 57.7 | > 100 | – | > 100 | 53.3 | 87.4
10 | O=C(CC(C(=O)c1cccs1)c1ccsc1)c1ccsc1 (stereo not drawn) | > 100 | > 100 | > 100 | 71.2 | > 100 | > 100 | > 100 | > 100 | – | > 100 | > 100 | > 100 | 53.5 | > 100 | > 100 | > 100 | > 100 | > 100 | > 100 | > 100
11 | CC(C)(C)OC(=O)CN1CCNCCN(CC(=O)OC(C)(C)C)CC1 | > 100 | > 100 | > 100 | > 100 | > 100 | > 100 | > 100 | – | > 100 | > 100 | > 100 | – | > 100 | – | > 100 | > 100 | > 100 | > 100 | > 100 | > 100
12 | O=C(O)C/C(=C\c1ccccc1)C(=O)O | > 100 | > 100 | > 100 | > 100 | > 100 | > 100 | > 100 | > 100 | > 100 | > 100 | > 100 | > 100 | > 100 | > 100 | > 100 | > 100 | > 100 | > 100 | > 100 | –
13 | CCCCCCCCCCCC1N=C(N)NC(CCCO)=C1C(=O)OC (stereo not drawn) | 34.6 | 11.7 | 8.12 | 3.39 | > 100 | 4.73 | 38.1 | 4.94 | 27.3 | > 62.2 | 3.05 | 12.1 | – | – | 3.01 | 9.08 | 9.15 | 4.78 | 8.53 | > 100
